Legend:
[1] = target: T1, Histone-lysine N-methyltransferase EHMT2 (Homo sapiens, UniProt Q96KQ7); test: Inhibition of human G9a using biotinylated-H3K9 peptide as substrate after 1 hr in presence of SAM by TR-FRET assay
T1 sequence (Q96KQ7 whole entry): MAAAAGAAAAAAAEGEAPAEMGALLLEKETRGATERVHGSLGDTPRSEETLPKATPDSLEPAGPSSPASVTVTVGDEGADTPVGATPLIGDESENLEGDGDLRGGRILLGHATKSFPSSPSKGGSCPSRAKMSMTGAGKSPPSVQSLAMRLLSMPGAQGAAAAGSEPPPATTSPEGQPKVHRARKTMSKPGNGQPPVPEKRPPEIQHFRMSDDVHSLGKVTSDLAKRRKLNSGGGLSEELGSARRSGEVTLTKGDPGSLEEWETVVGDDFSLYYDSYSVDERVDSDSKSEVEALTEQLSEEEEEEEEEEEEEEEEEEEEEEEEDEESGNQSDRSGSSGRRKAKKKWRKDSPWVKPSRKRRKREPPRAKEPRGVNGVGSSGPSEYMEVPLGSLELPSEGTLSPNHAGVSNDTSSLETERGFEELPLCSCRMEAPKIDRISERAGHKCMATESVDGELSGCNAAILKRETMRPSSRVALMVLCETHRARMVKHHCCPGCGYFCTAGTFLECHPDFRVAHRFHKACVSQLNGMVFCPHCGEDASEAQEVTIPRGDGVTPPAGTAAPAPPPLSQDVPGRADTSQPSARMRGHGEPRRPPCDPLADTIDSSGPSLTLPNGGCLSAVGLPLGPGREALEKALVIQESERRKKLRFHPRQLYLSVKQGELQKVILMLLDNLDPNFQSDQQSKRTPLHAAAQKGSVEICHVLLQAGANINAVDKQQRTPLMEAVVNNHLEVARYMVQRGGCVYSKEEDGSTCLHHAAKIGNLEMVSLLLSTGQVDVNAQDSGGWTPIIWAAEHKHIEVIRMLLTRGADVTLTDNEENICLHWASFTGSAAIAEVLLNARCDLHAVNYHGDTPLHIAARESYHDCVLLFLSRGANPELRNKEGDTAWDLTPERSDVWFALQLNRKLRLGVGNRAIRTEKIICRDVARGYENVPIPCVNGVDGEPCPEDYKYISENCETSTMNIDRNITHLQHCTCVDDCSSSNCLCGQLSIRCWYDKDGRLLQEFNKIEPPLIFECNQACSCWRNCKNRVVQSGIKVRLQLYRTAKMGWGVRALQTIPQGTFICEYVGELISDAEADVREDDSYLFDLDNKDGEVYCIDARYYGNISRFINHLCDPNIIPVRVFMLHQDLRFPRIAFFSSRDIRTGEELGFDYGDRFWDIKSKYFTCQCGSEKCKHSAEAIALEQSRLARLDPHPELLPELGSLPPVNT

[2] = target: T1, Histone-lysine N-methyltransferase EHMT2; test: Inhibition of G9a (unknown origin)
MV4-11 = test: Antitumor activity against human MV4-11 cells xenografted in SCID-beige mouse assessed as tumor growth inhibition at 30 mg/kg/day via osmotic pump for 2 weeks relative to control; format: functional; conditions: MV4-11, 336 h, read-out: TGI

Row | Compound | IC50 [1] [µM] | IC50 [2] [µM] | inhibition in vivo at 30 mg/kg/day (MV4-11) [%]
1 | Cc1cc(Nc2ccc(NC(=O)c3ccc(Nc4ccnc5ccccc45)cc3)cc2)nc(N)n1 | > 10 | 59 | –
2 | COc1cc2c(cc1OCCCN1CCCC1)N=C(N)C21CCC1 | – | – | 45

From ChEMBL document CHEMBL4130634, “Discovery of Reversible DNA Methyltransferase and Lysine Methyltransferase G9a Inhibitors with Antitumoral in Vivo Efficacy” (J Med Chem, 2018)
